# Where two headings read alike, the source gives them in different places.
# Columns and labels:
# dephosphorylated PDK1 = dephosphorylated PDK1 (Homo sapiens (Human), UniProt O15530); test: PDK1 kinase assay (coupled PDK1/AKT/FAM-crosstide, IMAP); format: biochemical; conditions: 25 nM un-phosphorylated PDK1, 24 μM ATP; read-out: Inhibition of dephospo-PDK1 in vitro IC50
# Protocol: A PDK1 kinase assay was performed as follows. PDK1 (amino acids 51-360) and AKT2 (amino acids 140-467 fused to PIFtide, amino acids […]) were expressed as N-terminally tagged GST fusion proteins in insect cells and purified to greater than 90% homogeneity. PDK1 protein was divided into two fractions, one of which was subsequently dephosphorylated. To generate dephosphorylated PDK1, the PDK1 was reacted with GST-tagged lambda-phosphatase in vitro. GST was subsequently cleaved proteolytically for both phosphorylated and dephosphorylated PDK1. Protein preparations were run on glutathione Sepharose columns to remove GST and GST-tagged lambda-phosphatase, if present. Phosphorylated PDK1 and dephosphorylated PDK1 were verified by mass-spectrometry. Enzyme activity was determined in a coupled PDK1/AKT/FAM-crosstide assay using either phosphorylated or unphosphorylated PDK1 and phosphorylation of FAM-crosstide was determined by standard IMAP protocol (Molecular Devices). For inhibition studies, compounds were titrated 3-fold in DMSO and diluted 40-fold into assay buffer (10 mM Tris HCl pH7.2; 10 mM MgCl2; 0.01% Triton X-100; 1 mM DTT) containing PDK1, AKT2, and FAM-crosstide. (final concentrations: 25 nM un-phosphorylated PDK1 or 0.5 nM phosphorylated PDK1, 30 nM unphosphorylated AKT2, and 100 nM crosstide substrate). The kinase reaction was initiated by adding ATP to a final concentration of 24 μM for both forms of PDK1 and incubated at 25° C. for 30 min. To detect assay product, the kinase reaction was combined with Progressive Binding Solution (1:600 Progressive Binding Reagent, 50% Buffer A, 50% Buffer B, Molecular Devices) in a 1:3 ratio. The mixture was incubated for 2 hours at 25° C. and the plate was scanned on an Analyst AD with excitation at 485 nm and emission at 530 nm. The fluorescence polarization value “P” is defined by the equation below. The value “mP” is generated by multiplying the P value for each reaction well by a factor of 1000. The value “ΔmP” for each well is the mP value for that well minus the mP value for the average negative control. P=(Fpar−Fperp)/(Fpar+Fperp) Eq.:
# Where “par” is fluorescence intensity parallel to the excitation plane; and “perp” is fluorescence intensity perpendicular to the excitation plane. ΔmP values were plotted as a function of compound concentration and the data were analyzed with a 4-parameter fit using GraphPad Prism software.
# phosphorylated PDK1 = phosphorylated PDK1 (Homo sapiens (Human), UniProt O15530); test: as above; format: biochemical; conditions: 0.5 nM phosphorylated PDK1, 24 μM ATP; read-out: Inhibition of phospo-PDK1 in vitro IC50
# phospho-akt (Thr308) = phospho-akt (Thr308) MSD ELISA in PC-3 cells; format: cell-based; conditions: Homo sapiens; for EC50: PC-3, 2 h; for inhibition at 1 µM / inhibition at 10 µM: read-out: Percent Inhibition of phospho-Akt (308) By MSD ELISA
# Summary of the method: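 PC-3 cells plated overnight in 10% FBS medium, then treated with three-fold serial compound dilutions in serum-free medium; DMSO-only wells as high control. Lysates captured on BSA-blocked MSD plates overnight at 4 degrees, detection antibody 1 hr RT, electrochemiluminescence read on MSD reader.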
# [1] = PC-3 cells, 2 hours, no serum, read-out: Inhibition of P308 Akt in cells using MSD EC50
# [2] = PC-3 cells, 2 hours, no serum, read-out: Reduction of Cellular Levels of Akt p308 By MSD ELISA (EC50 μM)
# Sequence of dephosphorylated PDK1 (O15530 51-360): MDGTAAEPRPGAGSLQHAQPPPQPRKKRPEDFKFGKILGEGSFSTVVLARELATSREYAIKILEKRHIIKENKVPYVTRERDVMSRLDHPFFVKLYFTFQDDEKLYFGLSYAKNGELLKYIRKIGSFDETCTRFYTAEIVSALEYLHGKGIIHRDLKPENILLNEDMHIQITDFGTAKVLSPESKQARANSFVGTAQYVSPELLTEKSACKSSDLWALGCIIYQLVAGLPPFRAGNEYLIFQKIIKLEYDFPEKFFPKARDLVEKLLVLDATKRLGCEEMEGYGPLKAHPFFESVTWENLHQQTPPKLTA
# Sequence of phosphorylated PDK1 (O15530 51-360): as above
SMILES,IC50 (dephosphorylated PDK1),IC50 (phosphorylated PDK1),EC50 (phospho-akt (Thr308); [1]),EC50 (phospho-akt (Thr308); [2]),EC50 (phospho-akt (Thr308); read-out: Reduction of Cellular Levels of Akt p308 By MSD ELISA (EC50 μM)),inhibition at 1 µM (phospho-akt (Thr308); PC-3 cells),inhibition at 10 µM (phospho-akt (Thr308); PC-3 cells)
CCC[C@H](COc1ccc2[nH]c(=O)[nH]c2c1)NC(=O)c1cccn(Cc2ccc(F)c(F)c2)c1=O [Cpd 322],< 0.5 µM,< 0.5 µM,1 to 5 µM,1 to 5 µM,,,
O=C(NCc1cccc(-c2ccc3cn[nH]c3c2)c1)c1cccn(Cc2ccc(F)c(F)c2)c1=O [Cpd 328],< 0.5 µM,< 0.5 µM,> 5 µM,,,,
Nc1cc(C(=O)NCc2noc(-c3c[nH]c4ncccc34)n2)c(=O)n(Cc2cc(F)c(F)c(F)c2)c1 [Cpd 187],< 0.5 µM,< 0.5 µM,> 5 µM,,,,
O=C(NCc1csc(-c2c[nH]c3ncccc23)n1)c1cccn(Cc2ccc(F)c(F)c2)c1=O [Cpd 121],< 0.5 µM,< 0.5 µM,< 1 µM,,,,
O=C(O)C[C@@H](NC(=O)c1cccn(Cc2ccc(F)c(F)c2)c1=O)c1ccc(-c2c[nH]c3ncccc23)s1 [Cpd 15],< 0.5 µM,< 0.5 µM,,,> 5 µM,,
O=C(NCCOc1ccc2c(c1)[nH]c(=O)n2C1CC1)c1cccn(Cc2ccc(F)c(F)c2)c1=O [Cpd 282],< 0.5 µM,< 0.5 µM,> 5 µM,,,< 25%,25 to 75%
C[C@@H](c1ccc(F)cc1)n1cccc(C(=O)NCc2noc(-c3c[nH]c4ncccc34)n2)c1=O [Cpd 311],< 0.5 µM,< 0.5 µM,,,,< 25%,> 75%
O=C(Nc1cccc(Cc2c[nH]c3ncccc23)c1)c1cccn(Cc2ccc(F)c(F)c2)c1=O [Cpd 128],< 0.5 µM,0.5 to 10 µM,> 5 µM,,,,
O=C(NCc1nnc(-c2c[nH]c3ncccc23)o1)c1cccn(Cc2ccc(F)c(F)c2)c1=O [Cpd 125],< 0.5 µM,< 0.5 µM,1 to 5 µM,1 to 5 µM,,25 to 75%,> 75%
NC(=O)CC[C@@H](NC(=O)c1cccn(Cc2ccc(F)c(F)c2)c1=O)c1nc(-c2c[nH]c3ncccc23)cs1 [Cpd 318],< 0.5 µM,< 0.5 µM,,,,< 25%,25 to 75%
O=C(N[C@H]1CC[C@@H](c2c[nH]c3ncccc32)CC1)c1cccn(Cc2ccc(F)c(F)c2)c1=O [Cpd 1],< 0.5 µM,< 0.5 µM,> 5 µM,> 5 µM,,,
O=C(NCc1noc(-c2ccc3ncnn3c2)n1)c1cccn(Cc2ccc(F)c(F)c2)c1=O [Cpd 235],< 0.5 µM,0.5 to 10 µM,,> 5 µM,,,
COc1ccnc(NCCCCCNC(=O)c2cccn(C(C)c3ccc(Cl)cc3)c2=O)n1 (centres unmarked) [Cpd 105],< 0.5 µM,0.5 to 10 µM,,,,,
NC(=O)Nc1ccc(OCCNC(=O)c2cccn(Cc3ccc(F)c(F)c3)c2=O)cc1 [Cpd 122],< 0.5 µM,0.5 to 10 µM,,,,,
COc1ccnc(NCCCCCNC(=O)c2cccn(Cc3ccc(F)c(F)c3)c2=O)n1 [Cpd 107],< 0.5 µM,0.5 to 10 µM,,,,,
O=C(NCCCCCc1c[nH]c2ncccc12)c1cccn(Cc2cccc(Cl)c2)c1=O [Cpd 108],0.5 to 10 µM,0.5 to 10 µM,,,,,
O=C(NCc1nc(-c2c[nH]c3ncccc23)cs1)c1cc(Cl)cn(Cc2ccc(Cl)cc2)c1=O [Cpd 273],< 0.5 µM,< 0.5 µM,,,,,
C[C@@H](NC(=O)c1cccn(Cc2ccc(F)c(F)c2)c1=O)c1nc(-c2c[nH]c3ncccc23)cs1 [Cpd 114],< 0.5 µM,< 0.5 µM,,,,,
O=C(NCc1cc(-c2c[nH]c3ncccc23)[nH]n1)c1cccn(Cc2ccc(F)c(F)c2)c1=O [Cpd 142],< 0.5 µM,< 0.5 µM,,,,,

# Source: patent US9873693B2 (Sunesis Pharmaceuticals, Inc., priority 2006, dated 2018)
